Measured values taken from patent publication US6737383B1, “Herbicidal oxadiazolidines” (priority 1999, dated 2004).

Legend:
giant foxtail = assay: Test B pre/postemergence giant foxtail; type: in vivo, Setaria faberii
Outline: (§1)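 Test chemicals in a non-phytotoxic solvent mixture with surfactant were sprayed preemergence onto planted seeds and postemergence onto plants 2 to 18 cm tall (1- to 4-leaf stage). After twelve to sixteen days in a greenhouse, injury was visually rated against untreated controls from 0 (no effect) to 10 (complete control).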

crabgrass = assay: Test B pre/postemergence crabgrass; type: in vivo, Digitaria sanguinalis
Outline: as §1

pigweed = assay: Test B pre/postemergence pigweed; type: in vivo, Amaranthus retroflexus
Outline: as §1

rice = assay: Test B flood test rice; type: in vivo, Oryza sativa
Outline: (§2)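 Plants were grown to the 2-leaf stage before treatment with test chemical, then held in a greenhouse for twelve to sixteen days. Injury was visually rated against untreated controls on a 0–10 scale, where 0 is no effect and 10 is complete control.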

rape = assay: Test B pre/postemergence rape; type: in vivo, Brassica napus
Outline: as §1

cocklebur = assay: Test B pre/postemergence cocklebur; type: in vivo, Xanthium strumarium
Outline: as §1

surinam grass = assay: Test B pre/postemergence surinam grass; type: in vivo, Brachiaria decumbens
Outline: as §1

bamyardgrass = assay: Test B flood test barnyardgrass; type: in vivo, Echinochloa crus-galli
Outline: as §2

corn = assay: Test B pre/postemergence corn; type: in vivo, Zea mays
Outline: as §1

wild oat = assay: Test B pre/postemergence wild oat; type: in vivo, Avena fatua
Outline: as §1

bedstraw = assay: Test B pre/postemergence bedstraw; type: in vivo, Galium aparine; settings: Postemergence
Outline: as §1

purple nutsedge = assay: Test B pre/postemergence purple nutsedge; type: in vivo, Cyperus rotundus
Outline: as §1

sugar beet = assay: Test B pre/postemergence sugar beet; type: in vivo, Beta vulgaris
Outline: as §1

morningglory = assay: Test B pre/postemergence morningglory; type: in vivo, Ipomoea hederacea
Outline: as §1

wheat = assay: Test B pre/postemergence wheat; type: in vivo, Triticum aestivum
Outline: as §1

blackgrass = assay: Test B pre/postemergence blackgrass; type: in vivo, Alopecurus myosuroides
Outline: as §1

[1] = Postemergence, Rate 125 g/ha, scale 0 to 10, 0 is no effect, 10 is complete control
[2] = Postemergence, Rate 500 g/ha, scale 0 to 10, 0 is no effect, 10 is complete control
[3] = Preemergence, Rate 62 g/ha, scale of 0 to 10 where 0 is no effect and 10 is complete control
[4] = Preemergence, Rate 125 g/ha, scale 0 to 10, 0 is no effect, 10 is complete control
[5] = Preemergence, Rate 250 g/ha, scale 0 to 10, 0 is no effect, 10 is complete control
[6] = Preemergence, Rate 500 g/ha, scale 0 to 10, 0 is no effect, 10 is complete control
[7] = Rate 62 g/ha, Postemergence, scale 0 to 10, 0 no effect, 10 complete control
[8] = Postemergence, Rate 250 g/ha, scale 0 to 10
[9] = Rate 62 g/ha, flood test species, Pre-emergence, visual evaluation after twelve to sixteen days
[10] = Rate 125 g/ha, under heading Pre-emergence, flood test species, visual evaluation after twelve to sixteen days
[11] = Rate 250 g/ha, Pre-emergence (flood test species), scale 0 to 10, 0 is no effect, 10 is complete control
[12] = Rate 500 g/ha, Pre-emergence section of Table B, 0 to 10 scale (0 no effect, 10 complete control)

CC(C)C(=O)Cn1c(=O)on(C(=O)N(c2ccc(F)cc2F)C(C)C)c1=O [Compound 486]
1: Plant response rating, Rape (rape; [2]) | B. signalgrass plant response rating (surinam grass; Postemergence, Rate 250 g/ha, scale 0 to 10, 0 no effect, 10 complete control) | Bedstraw plant response rating (bedstraw; Rate 125 g/ha, scale 0 to 10, 0 is no effect, 10 is complete control) | Morningglory plant response rating (morningglory; [1]) | Morningglory plant response rating (morningglory; [7])
10: Giant foxtail plant response rating (giant foxtail; [4]) | Giant foxtail plant response rating (giant foxtail; [5]) | Giant foxtail plant response rating (giant foxtail; [6]) | Crabgrass plant response rating (crabgrass; [5]) | Crabgrass plant response rating (crabgrass; [6]) | Blackgrass plant response rating (blackgrass; [5]) | Blackgrass plant response rating (blackgrass; [6])
0: Crabgrass plant response rating (crabgrass; [7]) | Redroot pigweed plant response rating (pigweed; [1]) | Redroot pigweed plant response rating (pigweed; [7]) | Plant response rating, Rice (0 to 10 scale, 0 is no effect, 10 is complete control) (rice; [9]) | Rice plant response rating (0 to 10 scale, 0 is no effect, 10 is complete control) (rice; [10]) | Rice plant response rating (rice; [11]) | Rice plant response rating (rice; [12]) | Rape plant response rating (rape; [1]) | Rape plant response rating (rape; [7]) | Cocklebur plant response rating (cocklebur; [1]) | Cocklebur plant response rating (cocklebur; [8]) | Plant response rating, Cocklebur (cocklebur; [2]) | Plant response rating, Cocklebur (cocklebur; [3]) | Cocklebur plant response rating (cocklebur; [4]) | Cocklebur plant response rating (cocklebur; [6]) | Cocklebur plant response rating (cocklebur; [7]) | B. signalgrass plant response rating (surinam grass; [1]) | B. signalgrass plant response rating (surinam grass; [7]) | Plant response rating, Barnyardgrass (0 to 10 scale, 0 is no effect, 10 is complete control) (bamyardgrass; [9]) | Barnyardgrass plant response rating (0 to 10 scale, 0 is no effect, 10 is complete control) (bamyardgrass; [10]) | Barnyardgrass plant response rating (bamyardgrass; [11]) | Barnyardgrass plant response rating (bamyardgrass; [12]) | Corn plant response rating (corn; [1]) | Corn plant response rating (corn; [8]) | Plant response rating, Corn (corn; [3]) | Corn plant response rating (corn; [4]) | Corn plant response rating (corn; [7]) | Wild oats plant response rating (wild oat; [1]) | Plant response rating, Wild oats (wild oat; [3]) | Wild oats plant response rating (wild oat; [7]) | Bedstraw plant response rating (bedstraw; Rate 62 g/ha, scale 0 to 10, 0 no effect, 10 complete control) | Nutsedge plant response rating (purple nutsedge; [1]) | Plant response rating, Nutsedge (purple nutsedge; [2]) | Plant response rating, Nutsedge (purple nutsedge; [3]) | Nutsedge plant response rating (purple nutsedge; [4]) | Nutsedge plant response rating (purple nutsedge; [5]) | Nutsedge plant response rating (purple nutsedge; [6]) | Nutsedge plant response rating (purple nutsedge; [7]) | Sugarbeets plant response rating (sugar beet; [1]) | Plant response rating, Sugarbeets (sugar beet; [3]) | Sugarbeets plant response rating (sugar beet; [4]) | Sugarbeets plant response rating (sugar beet; [7]) | Plant response rating, Morningglory (morningglory; [3]) | Morningglory plant response rating (morningglory; [4]) | Morningglory plant response rating (morningglory; [5]) | Morningglory plant response rating (morningglory; [6]) | Wheat plant response rating (wheat; [1]) | Plant response rating, Wheat (wheat; [3]) | Wheat plant response rating (wheat; [4]) | Wheat plant response rating (wheat; [5]) | Wheat plant response rating (wheat; [6]) | Wheat plant response rating (wheat; [7]) | Blackgrass plant response rating (blackgrass; [7])
6: Plant response rating, Redroot pigweed (pigweed; [3]) | Rape plant response rating (rape; [5]) | Rape plant response rating (rape; [6]) | B. signalgrass plant response rating (surinam grass; [5]) | Sugarbeets plant response rating (sugar beet; [6]) | Blackgrass plant response rating (blackgrass; [1])
7: Giant foxtail plant response rating (giant foxtail; [1]) | Plant response rating, Blackgrass (blackgrass; [3])
2: Giant foxtail plant response rating (giant foxtail; [7]) | Plant response rating, Redroot pigweed (pigweed; [2]) | Plant response rating, Rape (rape; [3]) | Rape plant response rating (rape; [4]) | Plant response rating, Sugarbeets (sugar beet; [2]) | Plant response rating, Morningglory (morningglory; [2])
5: Crabgrass plant response rating (crabgrass; [8]) | Plant response rating, B. signalgrass (surinam grass; [2]) | Plant response rating, B. signalgrass (surinam grass; [3]) | B. signalgrass plant response rating (surinam grass; [4]) | Corn plant response rating (corn; [5]) | Wild oats plant response rating (wild oat; [5]) | Plant response rating, Wheat (wheat; [2])
4: Bedstraw plant response rating (bedstraw; Rate 250 g/ha, scale 0 to 10) | Sugarbeets plant response rating (sugar beet; [5])
9: Plant response rating, Giant foxtail (giant foxtail; [2]) | Plant response rating, Giant foxtail (giant foxtail; [3]) | Plant response rating, Crabgrass (crabgrass; [2]) | Crabgrass plant response rating (crabgrass; [4]) | Redroot pigweed plant response rating (pigweed; [5]) | Redroot pigweed plant response rating (pigweed; [6]) | Blackgrass plant response rating (blackgrass; [4])
3: Crabgrass plant response rating (crabgrass; [1]) | Plant response rating, Corn (corn; [2]) | Plant response rating, Wild oats (wild oat; [2]) | Wild oats plant response rating (wild oat; [4])
8: Plant response rating, Crabgrass (crabgrass; [3]) | Redroot pigweed plant response rating (pigweed; [4]) | B. signalgrass plant response rating (surinam grass; [6]) | Corn plant response rating (corn; [6]) | Wild oats plant response rating (wild oat; [6]) | Plant response rating, Bedstraw (bedstraw; Rate 500 g/ha, scale 0 to 10, 0 is no effect, 10 is complete control) | Blackgrass plant response rating (blackgrass; [8]) | Plant response rating, Blackgrass (blackgrass; [2])
